The record followed here is patent US12662491B2 (Redona Therapeutics, Inc., priority 2020, dated 2026).

SMILES strings stand for the structures. pIC50: −log10 of the molar value.

This experiment addresses T1, Zcchc11 enzyme (Homo sapiens, UniProt Q5TAX3).
T1 construct: made in house; host or cells: HEK293 cells (Zcchc11); E. coli Rosetta II (LIN28A)
T1 sequence (Q5TAX3 212-1420): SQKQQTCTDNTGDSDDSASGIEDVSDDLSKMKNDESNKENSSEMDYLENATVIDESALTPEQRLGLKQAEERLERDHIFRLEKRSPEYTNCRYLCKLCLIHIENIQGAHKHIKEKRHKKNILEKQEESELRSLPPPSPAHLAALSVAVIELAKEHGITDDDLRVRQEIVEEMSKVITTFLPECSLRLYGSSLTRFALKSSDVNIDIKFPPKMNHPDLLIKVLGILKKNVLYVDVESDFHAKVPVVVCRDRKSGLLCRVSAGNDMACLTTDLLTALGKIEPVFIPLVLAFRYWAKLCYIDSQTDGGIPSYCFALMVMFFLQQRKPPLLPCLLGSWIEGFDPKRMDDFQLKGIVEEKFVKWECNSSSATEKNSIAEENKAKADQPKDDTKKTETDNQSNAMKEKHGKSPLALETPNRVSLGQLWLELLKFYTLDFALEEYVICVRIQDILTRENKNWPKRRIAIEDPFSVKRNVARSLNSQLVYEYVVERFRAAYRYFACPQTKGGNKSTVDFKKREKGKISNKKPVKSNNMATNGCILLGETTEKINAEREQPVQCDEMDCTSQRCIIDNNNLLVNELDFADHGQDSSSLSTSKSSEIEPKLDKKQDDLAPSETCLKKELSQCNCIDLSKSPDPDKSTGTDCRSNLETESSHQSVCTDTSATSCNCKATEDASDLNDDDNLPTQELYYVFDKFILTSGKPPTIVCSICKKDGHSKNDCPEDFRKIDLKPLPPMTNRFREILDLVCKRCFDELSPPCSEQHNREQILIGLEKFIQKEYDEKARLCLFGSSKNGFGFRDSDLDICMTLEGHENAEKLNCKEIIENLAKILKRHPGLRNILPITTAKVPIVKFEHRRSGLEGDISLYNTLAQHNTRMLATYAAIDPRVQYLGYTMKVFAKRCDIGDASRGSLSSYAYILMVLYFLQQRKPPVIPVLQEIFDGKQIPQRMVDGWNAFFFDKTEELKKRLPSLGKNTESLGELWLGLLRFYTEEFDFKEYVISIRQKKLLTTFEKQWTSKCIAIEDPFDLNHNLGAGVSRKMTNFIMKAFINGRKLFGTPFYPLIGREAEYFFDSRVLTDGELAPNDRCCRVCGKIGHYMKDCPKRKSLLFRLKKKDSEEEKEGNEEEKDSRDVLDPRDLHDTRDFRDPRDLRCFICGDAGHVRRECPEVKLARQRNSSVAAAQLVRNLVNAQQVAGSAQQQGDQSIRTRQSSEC
Put plainly: TUTase assay (Zcchc11 assay, Lin28a-dependent polyuridylation of pre-let-7). The format is biochemical. The note with it: Lin28a-dependent Zcchc11 (Z11) TUTase assay; read-out: Potency Lin28a-dep Z11 IC50. An outline of the steps: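 Human Zcchc11 residues 212-1420 (HEK293-expressed, MBP tag cleaved, C-terminal FLAG) at 0.2 nM, with 10 nM full-length human LIN28A and 2 nM 5′-fluorescein pre-let-7, preincubated with compound 30 min at room temperature. Reaction started with 5 uM UTP plus 4 nM 3′-rhodamine A20 quench probe; fluorescein loss read kinetically, IC50 from initial rates.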

`CN(C)C1CN(c2ccc(-n3cc(C(=O)O)c(=O)c4cc(F)c(N5CCC[C@]5(C)COc5ncccc5Cl)c(F)c43)cn2)C1` [Example 634, (R)-7-(2-(((3-chloropyridin-2-yl)oxy)methyl)-2-methylpyrrolidin-1-yl)-1-(6-(3-(dimethylamino)azetidin-1-yl)pyridin-3-yl)-6,8-difluoro-4-oxo-1,4-dihydroquinoline-3-carboxylic acid]: the pIC50 is at least 6.00.

Consider `CN(C)C1CN(c2ccc(-n3cc(C(=O)O)c(=O)c4cc(Cl)c(N5CCC6CC65COc5ncccc5Cl)cc43)cn2)C1` (stereo not drawn) [Example 635, 6-chloro-7-(1-(((3-chloropyridin-2-yl)oxy)methyl)-2-azabicyclo[3.1.0]hexan-2-yl)-1-(6-(3-(dimethylamino)azetidin-1-yl)pyridin-3-yl)-4-oxo-1,4-dihydroquinoline-3-carboxylic acid], for which the pIC50 is at least 6.00.

Consider `COc1ccc(C2C[C@H](COc3nc(OC)ccc3Cl)N(c3cc4c(cc3Cl)c(=O)c(C(=O)O)cn4-c3ccc(N4CC(N(C)C)C4)nc3)C2)cn1` (stereo partly drawn) [Example 636, 6-chloro-7-((2R)-2-(((3-chloro-6-methoxypyridin-2-yl)oxy)methyl)-4-(6-methoxypyridin-3-yl)pyrrolidin-1-yl)-1-(6-(3-(dimethylamino)azetidin-1-yl)pyridin-3-yl)-4-oxo-1,4-dihydroquinoline-3-carboxylic acid], for which the pIC50 was at least 6.00.

Turning to `COc1ccc(Cl)c(OC[C@H]2C[C@H](NC(C)=O)CN2c2cc3c(cc2Cl)c(=O)c(C(=O)O)cn3-c2ccc(N3CC(N(C)C)C3)nc2)n1` [Example 637, 6-chloro-7-[(2R)-2-{[(3-chloro-6-methoxypyridin-2-yl)oxy]methyl}-4-acetamido-pyrrolidin-1-yl]-1-{6-[3-(dimethylamino)azetidin-1-yl]pyridin-3-yl}-4-oxo-1,4-dihydroquinoline-3-carboxylic acid], the pIC50 was at least 6.00.

In the case of `O=C(O)c1cn(-c2cnccn2)c2cc(N3CC(F)(F)C[C@@H]3COc3ncccc3Cl)c(Cl)cc2c1=O` [Example 638, (R)-6-chloro-7-(2-(((3-chloropyridin-2-yl)oxy)methyl)-4,4-difluoropyrrolidin-1-yl)-4-oxo-1-(pyrazin-2-yl)-1,4-dihydroquinoline-3-carboxylic acid], the pIC50 is at least 6.00.

With `CN(C)C1CN(c2ccc(-n3cc(C(=O)O)c(=O)c4cc(Cl)c(N5CCC[C@@]5(C)COc5ncccc5Cl)cc43)cn2)C1` [Example 639, (S)-6-chloro-7-(2-(((3-chloropyridin-2-yl)oxy)methyl)-2-methylpyrrolidin-1-yl)-1-(6-(3-(dimethylamino)azetidin-1-yl)pyridin-3-yl)-4-oxo-1,4-dihydroquinoline-3-carboxylic acid], the pIC50 was at least 6.00.

Turning to `COc1ccc(Cl)c(OC[C@H]2C[C@@H](O)CN2c2cc3c(cc2Cl)c(=O)c(C(=O)O)cn3-c2ccc(N3CC(N(C)C)C3)nc2)n1` [Example 641, 6-chloro-7-((2R,4R)-2-(((3-chloro-6-methoxypyridin-2-yl)oxy)methyl)-4-hydroxypyrrolidin-1-yl)-1-(6-(3-(dimethylamino)azetidin-1-yl)pyridin-3-yl)-4-oxo-1,4-dihydroquinoline-3-carboxylic acid], the pIC50 was at least 6.00.

Regarding `COc1ccc(Cl)c(OC[C@H]2CC(N3CCCC3=O)CN2c2cc3c(cc2Cl)c(=O)c(C(=O)O)cn3-c2ccc(N3CC(N(C)C)C3)nc2)n1` (stereo partly drawn) [Example 642, 6-chloro-7-((5′R)-5′-(((3-chloro-6-methoxypyridin-2-yl)oxy)methyl)-2-oxo-[1,3′-bipyrrolidin]-1-yl)-1-(6-(3-(dimethylamino)azetidin-1-yl)pyridin-3-yl)-4-oxo-1,4-dihydroquinoline-3-carboxylic acid], the pIC50 was at least 6.00.

Regarding `COc1ccc(Cl)c(OC[C@H]2CC(C)(O)CN2c2cc3c(cc2Cl)c(=O)c(C(=O)O)cn3-c2ccc(N3CC(N(C)C)C3)nc2)n1` (stereo partly drawn) [Example 643, 6-chloro-7-((2R)-2-(((3-chloro-6-methoxypyridin-2-yl)oxy)methyl)-4-hydroxy-4-methylpyrrolidin-1-yl)-1-(6-(3-(dimethylamino)azetidin-1-yl)pyridin-3-yl)-4-oxo-1,4-dihydroquinoline-3-carboxylic acid], the pIC50 was at least 6.00.

Take `COc1ccc(Cl)c(OC[C@H]2CCCN2c2cc3c(cc2Cl)c(=O)c(C(=O)O)cn3-c2ccnc(N)c2)n1` [Example 644, (R)-1-(2-aminopyridin-4-yl)-6-chloro-7-(2-(((3-chloro-6-methoxypyridin-2-yl)oxy)methyl)pyrrolidin-1-yl)-4-oxo-1,4-dihydroquinoline-3-carboxylic acid]: the pIC50 was at least 6.00.

Consider `CN(C)C1CN(c2ccc(-n3cc(C(=O)O)c(=O)c4cc(Cl)c(N5CCC[C@@H]5COc5nc6c(ccn6C)cc5Cl)cc43)cn2)C1` [Example 645, (R)-6-chloro-7-(2-(((5-chloro-1-methyl-1H-pyrrolo[2,3-b]pyridin-6-yl)oxy)methyl)pyrrolidin-1-yl)-1-(6-(3-(dimethylamino)azetidin-1-yl)pyridin-3-yl)-4-oxo-1,4-dihydroquinoline-3-carboxylic acid], for which the pIC50 is at least 6.00.

Regarding `COc1ccc(Cl)c(OC[C@H]2CCCN2c2cc3c(cc2F)c(=O)c(C(=O)O)cn3-c2cnnc(N)c2)n1` [Example 646, (R)-1-(6-aminopyridazin-4-yl)-7-(2-(((3-chloro-6-methoxypyridin-2-yl)oxy)methyl)pyrrolidin-1-yl)-6-fluoro-4-oxo-1,4-dihydroquinoline-3-carboxylic acid], the pIC50 is at least 6.00.

For `Nc1ccc(-n2cc(C(=O)O)c(=O)c3cc(Cl)c(N4CCC[C@@H]4COc4nc(OC5CC5)ccc4Cl)cc32)cn1` [Example 647, (R)-1-(6-aminopyridin-3-yl)-6-chloro-7-(2-(((3-chloro-6-cyclopropoxy-pyridin-2-yl)oxy)methyl)pyrrolidin-1-yl)-4-oxo-1,4-dihydroquinoline-3-carboxylic acid], the pIC50 is at least 6.00.

Regarding `COc1ccc(Cl)c(OC[C@H]2CC(C)(C)CN2c2cc3c(cc2Cl)c(=O)c(C(=O)O)cn3-c2ccc(N3CC(N(C)C)C3)nc2)n1` [Example 648, (R)-6-chloro-7-(2-(((3-chloro-6-methoxypyridin-2-yl)oxy)methyl)-4,4-dimethylpyrrolidin-1-yl)-1-(6-(3-(dimethylamino)azetidin-1-yl)pyridin-3-yl)-4-oxo-1,4-dihydroquinoline-3-carboxylic acid], the pIC50 was at least 6.00.

Regarding `COc1ccc(Cl)c(OC[C@H]2CC(C)(C)CN2c2cc3c(cc2Cl)c(=O)c(C(=O)O)cn3-c2ccc(N)nc2)n1` [Example 649, (R)-1-(6-aminopyridin-3-yl)-6-chloro-7-(2-(((3-chloro-6-methoxypyridin-2-yl)oxy)methyl)-4,4-dimethylpyrrolidin-1-yl)-4-oxo-1,4-dihydroquinoline-3-carboxylic acid], the pIC50 was at least 6.00.

In the case of `COc1ccc(Cl)c(OC[C@H]2CC(C)(C)CN2c2cc3c(cc2Cl)c(=O)c(C(=O)O)cn3-c2ccnc(N)c2)n1` [Example 650, (R)-1-(2-aminopyridin-4-yl)-6-chloro-7-(2-(((3-chloro-6-methoxypyridin-2-yl)oxy)methyl)-4,4-dimethylpyrrolidin-1-yl)-4-oxo-1,4-dihydroquinoline-3-carboxylic acid], the pIC50 is at least 6.00.

Take `COc1cnc(OC[C@H]2CC3CC3N2c2cc3c(cc2Cl)c(=O)c(C(=O)O)cn3-c2ccc(N)nc2)c(Cl)c1` (stereo partly drawn) [Example 651, 1-(6-aminopyridin-3-yl)-6-chloro-7-((3R)-3-(((3-chloro-5-methoxypyridin-2-yl)oxy)methyl)-2-azabicyclo[3.1.0]hexan-2-yl)-4-oxo-1,4-dihydroquinoline-3-carboxylic acid]: the pIC50 is at least 6.00.

As to `CN(C)C1CN(c2ccc(-n3cc(C(=O)O)c(=O)c4cc(Cl)c(N5CCC[C@@H]5COc5nc6nc[nH]c6cc5Cl)cc43)cn2)C1` [Example 652, (R)-6-chloro-7-(2-(((6-chloro-3H-imidazo[4,5-b]pyridin-5-yl)oxy)methyl)pyrrolidin-1-yl)-1-(6-(3-(dimethylamino)azetidin-1-yl)pyridin-3-yl)-4-oxo-1,4-dihydroquinoline-3-carboxylic acid], the pIC50 was at least 6.00.
